# Test results taken from US5925369A, “Bis alkanoyl esters of carnitine having bactericidal, fungicidal and antiprotozoal activity” (priority 1996, dated 1999).
# Like-named read-outs stand apart in the source and are kept apart here.
# Columns and labels:
# yeast-like strains = assay: MIC on yeast-like strains (all lab collection strains); type: cell-based; settings: 5 strains
# Method: (§1) Overnight yeast cultures in Sabouraud broth are appropriately washed and diluted in Yeast Nitrogen Base supplemented with asparagine and glucose (Y.N.B.s.) to yield approximately 5.0×10^4 CFU/ml in microtiter wells. Substance dilutions (0.3 log) in Y.N.B.s. are added to these suspensions to a final concentration range from 0.19 to 100 mcg/ml. Microtiter plates are then incubated at 35° C. for 24-48 hours (See PFALLER M., RINALDI M. G., […] J. M., BARTLETT M. S., BODY B. A., ESPINEL-INGROFF A., FROMTLING R. A., HALL G. S., HUGHES G. E., ODDS F. C., SUGAR A. M., Collaborative investigator of variables in susceptibility testing of yeasts, Ant. Agent and Chemoth., 34, 9:1648-1656, 1990. COOK R., McINTYRE K. A., […] J. M., Effects of incubation temperature, inoculum size, and medium on agreement of macro and microdilution broth susceptibility test, results for yeasts, Ant. Agent and Chemoth., 34, 8:1542-1545, 1990. […] E., PAETZNICK V., BODEY G. P., Fluconazole susceptibility testing of "Candida albicans" microtiter method that is indipendent of inoculum size, temperature, and time of reaching, Ant. Agent and Chemoth., 35, 8:1641-1646, 1991).
# C. krusei = assay: MIC on yeast-like strains; type: cell-based; settings: Pichia kudriavzevii; C. krusei ISS 1, lab collection; read-out: Minimal Inhibitory Concentration
# Method: as §1
# C. tropicalis = assay: MIC on yeast-like strains; type: cell-based; settings: Candida tropicalis; C. tropicalis ISS 1, lab collection; read-out: Minimal Inhibitory Concentration
# Method: as §1
# Candida albicans = assay: MIC on yeast-like strains; type: cell-based; settings: read-out: Minimal Inhibitory Concentration
# Method: as §1
# S. cerevisiae = assay: MIC on yeast-like strains; type: cell-based; settings: Saccharomyces cerevisiae, ATCC7752; S. cerevisiae ATCC 7752, lab collection; read-out: Minimal Inhibitory Concentration
# Method: as §1
# filamentous fungi = assay: MIC on filamentous fungi (all strains); type: cell-based; settings: for MIC: lab collection, 5 strains
# Method: The conidia are collected from 72-hour cultures in Sabouraud agar by washing them with Sabouraud broth and 0.5% Tween 80. After a coarse filtration and washing, the resulting suspensions are adjusted to a final concentration of approx. 5.0×10^4 CFU/ml in a microtiter plate. The substances (0.3 log dilutions in Y.N.B.s.) are added to the fungal suspensions in order to generate a range of final concentrations from 0.19 to 100 mcg/ml. The microtiter plates are then incubated at 35° C. for 48-72 hours.
# Candida strains = assay: MIC on Candida strains (all clinical isolates); type: cell-based, Candida albicans; settings: for MIC: Candida clinical isolates, 10 strains
# Method: as §1
# Trichomonas vaginalis = assay: MIC on protozoa (Trichomonas vaginalis); type: cell-based; settings: for MIC: Trichomonas vaginalis
# Method: Protozoal suspensions are prepared from 24-hour cultures grown at 37° C. and 5% CO2 in DIAMOND T.Y.M. broth supplemented with 10% heat-inactivated FCS.
# The suspensions are adjusted, in the same medium, to a final concentration of 2.5×10^5 cells/ml in each well of a 96-well microtiter plate. Substance dilutions (0.3 log) are added to the suspensions in order to have a range of final concentrations from 0.19 to 100 mcg/ml. Microtiters are then incubated at 37° C. and 5% CO2 for 24 hours. MIC is referred to as the minimal concentration inhibiting either protozoa or flagella or undulating membrane motility (Cf. JULIANO C., MARTINOTTI M. G., […] P., In vitro effect of microtubule inhibitors on T. vaginalis, Microbiologia, 8:31-42, 1985. LOVGREN T. and SALMELA I., Invitro sensitivity of T. vaginalis and C. albicans to chemotherapeutic agents, Acta Path. Microbiol. Scand.. 86:155-158, 1978).
# dermatophytes = assay: MIC on dermatophytes (all strains); type: cell-based; settings: for MIC: 22 strains
# Method: Mycelium fragments, micro and macroaleuriospores are harvested from 7-day fungal cultures grown at 30 ° C. in Potato Dextrose agar by washing them with Sabouraud broth and 0.5% Tween 80. After a coarse filtration and washing, the fungal suspension is resuspended in Yeast Nitrogen Base supplemented with asparagine and glucose (YNBs) to yield a final concentration of 1.0×10^5 infective units/ml in a microtiter plate. The substances (0.3 log dilutions in Y.N.B.s.) are added to the fungal suspensions in order to generate a range of final concentrations from 0.19 to 100 mcg/ml. The microtiter plates are then incubated at 30° C. for 96-120 hours.
# [1] = test system: Staphylococcus aureus LC1; assay: In vivo antiinfective effect on topical mixed infection in mice; design: species or system BALB/c mice; settings: for S. aureus: Not cured animals (mean CFU/mouse) / S. aureus: Cured animals: 50 mg/day of 1% gel, topical, 5 days; for S. aureus: Cured animals: 5 animals/group; for activity on S. aureus, ST 1226 and ST 1103 compared: mixed topical infection
# Method: Male inbred BALB/c mice (C. RIVER), aged 6 weeks were used (5 animals per group).
# The animals were topically infected with pathogenic strains of Tricophyton (Tricophyton quinckeanum NCPF 309) and Staphylococcus (Staphylococcus aureus LC1).
# Suspensions of fungal microaleuriospores and bacteria were adjusted to a final concentration of 5.0×10^7 and 1.0×10^7 cells/ml, respectively. Volumes of 0.2 ml of each suspension were applied onto the upper posterior zone of the animals, which had previously been shaved and gently abraded with a scalpel blade until "glistening". Treatment started 30 hours after the inocula by administering 50 mg of each substance in a gel form (1% test article) on the infected skin once a day for 5 consecutive days. Two days following the last treatment, animals were sacrificed and infected tissue samples were collected. Following homogenization and appropriate dilution in medium, tissue samples were plated (in Mycobiotic agar and Mannitol Salt agar for fungi and bacteria, respectively) to selectively assess the growth of the pathogens. Fungal growth is evaluated by means of an arbitrary scale, while bacterial growth is evaluated by determining the CFUs (Colony Forming Units).
# [2] = C. albicans 562, lab collection
# [3] = C. albicans ISS 1, lab collection
# [4] = Candida albicans 1786/94, clinical isolate
# [5] = Candida albicans IDI D 0101, clinical isolate (eczema, internatal; prior Versus)
# [6] = Candida albicans IDI D 0297, clinical isolate (vulvar vaginitis; prior Pevaryl)
# [7] = Candida albicans IDI D 1046, clinical isolate (glossitis; prior Daktarin)
# [8] = Candida albicans IDI D 1056, clinical isolate
# [9] = Candida albicans IDI D 1088, clinical isolate
# [10] = Candida albicans IDI D 3575, clinical isolate
# [11] = Candida albicans SG 2 III, clinical isolate (vaginitis)
# [12] = Candida albicans SG 7 I, clinical isolate (Tinea unguis, hands)
# [13] = Candida albicans SG 14 III, clinical isolate (vaginitis)
# [14] = T. vaginalis SS-2, read-out: Minimal Inhibitory Concentration
# [15] = T. vaginalis SS-9, read-out: Minimal Inhibitory Concentration
# [16] = T. vaginalis SS-20, Metronidazole resistant, read-out: Minimal Inhibitory Concentration
# [17] = T. vaginalis SS-22, Metronidazole resistant, read-out: Minimal Inhibitory Concentration
# [18] = T. vaginalis, 4 strains, read-out: Mean MIC
structure (smiles),measurement,setting,value
"CCCCCCCCCCCOC(=O)C[C@H](C[N+](C)(C)C)OC(=O)CC(C)C [ST 1103, isovaleryl L-carnitine undecyl ester methanesulfonate, reference compound]",MIC,yeast-like strains,2.8 µg/mL
same,MIC,C. krusei,3.12 µg/mL
same,MIC,C. tropicalis,3.12 µg/mL
same,MIC,Candida albicans; [2],3.12 µg/mL
same,MIC,Candida albicans; [3],1.56 µg/mL
same,MIC,Candida albicans; [4],6.25 µg/mL
same,MIC,Candida albicans; [5],6.25 µg/mL
same,MIC,Candida albicans; [6],3.12 µg/mL
same,MIC,Candida albicans; [7],3.12 µg/mL
same,MIC,Candida albicans; [8],3.12 µg/mL
same,MIC,Candida albicans; [9],3.12 µg/mL
same,MIC,Candida albicans; [10],6.25 µg/mL
same,MIC,Candida albicans; [11],6.25 µg/mL
same,MIC,Candida albicans; [12],3.12 µg/mL
same,MIC,Candida albicans; [13],6.25 µg/mL
same,MIC,S. cerevisiae,3.12 µg/mL
same,MIC,filamentous fungi,18.8 µg/mL
same,MIC,Candida strains,4.68 µg/mL
same,MIC,Trichomonas vaginalis; [14],25 µg/mL
same,MIC,Trichomonas vaginalis; [15],25 µg/mL
same,MIC,Trichomonas vaginalis; [16],25 µg/mL
same,MIC,Trichomonas vaginalis; [17],25 µg/mL
same,MIC,Trichomonas vaginalis; [18],25 µg/mL
same,MIC,dermatophytes,13.5 µg/mL
same,S. aureus: Not cured animals (mean CFU/mouse),[1],40 CFU/mouse
same,S. aureus: Cured animals,[1],80%
same,"activity on S. aureus, ST 1226 and ST 1103 compared",[1],identical activity on S. aureus
"CCCCCCCCCCC(=O)O[C@H](CC(=O)OCc1ccc(COC(=O)C[C@H](C[N+](C)(C)C)OC(=O)CCCCCCCCCC)cc1)C[N+](C)(C)C [ST 1226, bis(undecanoyl L-carnitine chloride)p-xylilene diester]",MIC,yeast-like strains,2.49 µg/mL
same,MIC,C. krusei,3.12 µg/mL
same,MIC,C. tropicalis,1.56 µg/mL
same,MIC,Candida albicans; [2],3.12 µg/mL
same,MIC,Candida albicans; [3],3.12 µg/mL
same,MIC,Candida albicans; [4],3.12 µg/mL
same,MIC,Candida albicans; [5],1.56 µg/mL
same,MIC,Candida albicans; [6],3.12 µg/mL
same,MIC,Candida albicans; [7],3.12 µg/mL
same,MIC,Candida albicans; [8],1.56 µg/mL
same,MIC,Candida albicans; [9],3.12 µg/mL
same,MIC,Candida albicans; [10],3.12 µg/mL
same,MIC,Candida albicans; [11],1.56 µg/mL
same,MIC,Candida albicans; [12],3.12 µg/mL
same,MIC,Candida albicans; [13],1.56 µg/mL
same,MIC,S. cerevisiae,1.56 µg/mL
same,MIC,filamentous fungi,8.43 µg/mL
same,activity compared with ST 1103,filamentous fungi; single results and mean MIC,markedly higher activity than ST 1103
same,MIC,Candida strains,2.49 µg/mL
same,activity compared with ST 1103,"Candida strains; yeast-like strains, mostly Candida clinical isolates","higher activity than ST 1103, mostly against Candida clinical isolates"
same,greater (fold) activity than ST 1103,"Trichomonas vaginalis; T. vaginalis, ST 1226 vs ST 1103",2 fold
same,MIC,Trichomonas vaginalis; [14],12.5 µg/mL
same,MIC,Trichomonas vaginalis; [15],12.5 µg/mL
same,MIC,Trichomonas vaginalis; [16],12.5 µg/mL
same,MIC,Trichomonas vaginalis; [17],12.5 µg/mL
same,MIC,Trichomonas vaginalis; [18],12.5 µg/mL
same,activity compared with ST 1103,dermatophytes,higher activity than ST 1103
same,MIC,dermatophytes,3.19 µg/mL
same,S. aureus: Not cured animals (mean CFU/mouse),[1],50 CFU/mouse
same,S. aureus: Cured animals,[1],80%
same,"activity on S. aureus, ST 1226 and ST 1103 compared",[1],identical activity on S. aureus
